Patent publication US9200008B2 (ASKA PHARMACEUTICAL CO., LTD., priority 2010, dated 2015)

The compounds below were run on Human prostate cancer cell lines (PC-3 cells) (assay: Measurement of cell death-inducing activity (Test Example 1)). Conditions: PC-3, 48 h, 48 hours after addition, tested at 10, 1, 0.1, 0.025 and 0.00625 μmol/L, qualitative evaluation of 10 fields, read-out: Concentration showing the cell death-inducing activity (cell death-inducing rate not less than 40%).
Assay type: cell-based
How it was run: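 Compound treatment lasted 48 h at 10 to 0.00625 μmol/L (five levels, DMSO as control) on PC-3 cells pre-cultured 48 h at 37 °C, 5% CO2 after seeding at 1×10^5 cells/well. A cell death-inducing rate of 40% or more counted as active.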

Row | SMILES | minimal effective concentration
1 | COc1ccc(CN(C)NC(=O)c2sc(-c3ccc(C)cc3C)nc2C)cc1 [Example 16-11] | 0.1 µM
2 | COc1ccccc1-c1nc(C)c(NC(=O)OCc2ccc3c(ccn3C)c2)s1 [Example 9-29] | 10 µM
3 | Cc1ccc(-c2nc(C)c(NC(=O)OCc3ccc4c(c3)CCO4)s2)c(C)c1 [Example 9-8] | 10 µM
4 | Cc1ccc(-c2cc(COC(=O)Nc3ccc4c(c3)nc3n4CCCC3)n(C)n2)c(C)c1 [Example 13-122] | 0.025 µM
5 | COc1cc(Cl)ccc1-c1nc(C)c(COC(=O)Nc2ccc3c(c2)nc2n3CCOC2)s1 [Example 13-23] | 1 µM
6 | Cc1cccnc1-c1nc(C)c(C(=O)N/N=C/c2cc(C)c(O)c(C)c2)s1 [Example 23-119] | 10 µM
7 | COc1cc(F)ccc1-c1cc(COC(=O)Nc2ccc3c(c2)nc2n3CCCC2)n(C)n1 [Example 13-116] | 0.025 µM
8 | COc1ccc(/C=N/NC(=O)c2sc(-c3ccccc3OC)nc2C)cc1B(O)O [Example 23-160] | 0.1 µM
9 | COc1ccc(CN(C)NC(=O)c2sc(-c3ccc(Cl)cc3C)nc2C)cc1OC [Example 16-17] | 1 µM
10 | COc1cccc(/C=N/NC(=O)c2sc(-c3ccc(Cl)cc3)nc2C)c1O [Example 23-60] | 10 µM
11 | COc1ccccc1-c1nc(C)c(C(=O)N/N=C/c2ccc3[nH]ccc3c2)s1 [Example 23-90] | 0.1 µM
12 | CCn1cnc2cc(COC(=O)Nc3sc(-c4ccccc4C)nc3C)ccc21 [Example 9-53] | 0.1 µM
13 | CCn1cc2cc(COC(=O)Nc3sc(-c4ccc(F)cc4C)nc3C)ccc2n1 [Example 9-158] | 1 µM
14 | COc1ccc(/C=N/NC(=O)c2sc(-c3ccc(Cl)cc3Cl)nc2C)cc1O [Example 23-1, 2-(2,4-Dichlorophenyl)-4-methylthiazole-5-carboxylic acid[1-(3-hydroxy-4-methoxyphenyl)methylidene]hydrazide] | 10 µM
15 | Cc1ccc(-c2cc(COC(=O)Nc3ccc4c(c3)nc3n4CCOC3)n(C)n2)c(C)c1 [Example 13-103] | 0.00625 µM
16 | Cc1cc(Cl)ccc1-c1nc(C)c(NC(=O)OCc2ccc3c(c2)ncn3C)s1 [Example 9-49] | 0.00625 µM
17 | CCn1nc(-c2ccc(C)cc2C)cc1COC(=O)Nc1ccc2c(c1)nc1n2CCC1 [Example 13-111] | 0.00625 µM
18 | CCCc1nc(-c2ccc(Cl)cc2)sc1C(=O)N/N=C/c1cc(C)c(O)c(C)c1 [Example 23-107] | 10 µM
19 | CCc1cc(F)ccc1-c1nc(C)c(NC(=O)OCc2ccc3c(c2)nc2n3CCC2)s1 [Example 9-102] | 0.025 µM
20 | CCn1nc(-c2ccc(F)cc2OC)cc1COC(=O)Nc1ccc2c(c1)ncn2CC [Example 13-83] | 0.025 µM
21 | COc1ccccc1-c1nc(C)c(NC(=O)OCc2ccc3c(c2)ncn3C)s1 [Example 9-37] | 0.025 µM
22 | Cc1cccc(-c2nc(C)c(C(=O)N/N=C/c3ccc4c(c3)OCO4)s2)c1C [Example 23-43] | 1 µM
23 | COc1ccc(/C=N/NC(=O)c2cc(-c3ccc(Cl)cc3OC)n[nH]2)cc1O [Example 22-8] | 1 µM

Row | SMILES | minimal effective concentration
24 | Cc1nc2cc(COC(=O)Nc3sc(-c4ccc(Cl)cc4C)nc3C)ccc2s1 [Example 37-4] | 1 µM
25 | COc1cc(Cl)ccc1-c1nc(C)c(NC(=O)OCc2ccc3c(c2)nc2n3CCC(O)C2)s1 (centres unmarked) [Example 9-343] | 0.1 µM
26 | CCn1ncc2cc(/C=N/NC(=O)c3cc(-c4ccc(Cl)cc4OC)ns3)ccc21 [Example 49-8] | 1 µM
27 | CCn1nc(-c2ccc(Cl)cc2OC)cc1COC(=O)Nc1ccc2c(c1)ncn2CC [Example 13-87] | 0.025 µM
28 | CCn1c(C)nc2cc(COC(=O)Nc3sc(-c4ccccc4OC)nc3C)ccc21 [Example 9-85] | 1 µM
29 | COc1cc(C)ccc1-c1nc(C)c(NC(=O)OCc2ccc3c(c2)nc2n3CCC(C)C2)s1 (centres unmarked) [Example 9-121] | 1 µM
30 | CCc1nc(-c2ccc(Cl)cc2C)sc1NC(=O)OCc1ccc2c(c1)nc1n2CCCC1 [Example 9-356] | 0.1 µM
31 | Cc1ccccc1-c1ncc(C(=O)N/N=C/c2cc(C)c(O)c(C)c2)[nH]1 [Example 25-2, 2-(2-Methylphenyl)-3H-imidazole-4-carboxylic acid[1-(4-hydroxy-3,5-dimethylphenyl)methylidene]hydrazide] | 10 µM
32 | CCn1cnc2cc(NC(=O)OCc3sc(-c4ccccc4C)nc3C)ccc21 [Example 13-12] | 0.1 µM
33 | COc1ccc(/C=N/NC(=O)c2sc(-c3ncccc3Cl)nc2C)cc1O [Example 23-139] | 1 µM
34 | Cc1ccccc1-c1nc(C)c(NC(=O)OCc2ccc3c(c2)nnn3C)s1 [Example 9-12] | 1 µM
35 | COc1cc(Cl)ccc1-c1cc(C(=O)N/N=C/c2cc(C)c(O)c(C)c2)n(C)c1 [Example 23-169, 4-(4-Chloro-2-methoxyphenyl)-1-methyl-1H-pyrrole-2-carboxylic acid (4-hydroxy-3,5-dimethylbenzylidene)hydrazide] | 10 µM
36 | CCn1cc2cc(NC(=O)OCc3sc(-c4ccc(F)cc4C)nc3C)ccc2n1 [Example 13-54] | 0.1 µM
37 | Cc1nc(-c2sccc2Cl)sc1COC(=O)Nc1ccc2c(c1)nc1n2CCOC1 [Example 13-61] | 10 µM
38 | Cc1cc(Cl)ccc1-c1nc(C)c(COC(=O)Nc2ccc3nn(C)cc3c2)s1 [Example 13-50] | 0.025 µM
39 | CCc1nc(-c2ccc(Cl)cc2)sc1C(=O)N/N=C/c1ccc(OC)c(O)c1 [Example 23-100] | 1 µM
40 | COc1cc(Cl)ccc1-c1cc(COC(=O)Nc2ccc3c(c2)nc2n3CCOC2)sn1 [Example 47-9] | 0.00625 µM
41 | COc1ccc(/C=N/NC(=O)c2sc(-c3csc4ccccc34)nc2C)cc1O [Example 23-38] | 1 µM
42 | COc1ccc(/C=N/NC(=O)c2sc(-c3cccc(C)c3C)nc2C)cc1O [Example 23-22] | 1 µM
43 | CCc1nc(-c2ccc(C)cc2OC)sc1NC(=O)OCc1ccc2c(c1)nc1n2CCOC1 [Example 9-358] | 0.025 µM
44 | COc1ccc(NC(=O)OCc2cc(-c3ccc(F)cc3OC)nn2C)cc1 [Example 13-70] | 10 µM
45 | COc1ccc(CN(C)NC(=O)c2sc(-c3ccc(F)cc3F)nc2C)cc1F [Example 16-21] | 1 µM
46 | Cc1ccc(-c2nc(C)c(NC(=O)OCc3ccc4c(c3)nc3n4CCC(C)C3)s2)c(C)c1 (centres unmarked) [Example 9-122] | 1 µM

Row | SMILES | minimal effective concentration
47 | CCc1ccccc1-c1nc(C)c(NC(=O)OCc2ccc3c(c2)nc(C)n3CC)s1 [Example 9-84] | 1 µM
48 | Cc1cc(Cl)ccc1-c1nc(C)c(NC(=O)OCc2ccc3nn(C)cc3c2)s1 [Example 9-150] | 0.025 µM
49 | Cc1nc(-c2ccc(Cl)s2)sc1NC(=O)OCc1ccc2c(c1)ncn2C [Example 9-193] | 1 µM
50 | Cc1cccc(-c2nc(C)c(C(=O)N/N=C/c3ccc(OC(F)F)c(O)c3)s2)c1C [Example 23-117] | 1 µM
51 | Cc1ccc(-c2nc(C)c(COC(=O)Nc3ccc4nn(C)cc4c3)s2)c(C)c1 [Example 13-48] | 0.1 µM
52 | Cc1ccc(-c2cc(COC(=O)Nc3ccc4c(c3)ncn4C)nn2C)c(C)c1 [Example 13-141] | 10 µM
53 | COc1ccccc1-c1cc(NC(=O)OCc2ccc3nn(C)cc3c2)n(C)n1 [Example 9-288] | 1 µM
54 | COc1ccc(/C=N/NC(=O)c2sc(-c3cccc(OC)c3OC)nc2C)cc1O [Example 23-24] | 10 µM
55 | CCc1nc(-c2ccc(C)cc2C)sc1NC(=O)OCc1ccc2c(c1)nc(C)n2C [Example 9-375] | 0.1 µM
56 | Cc1cc(Cl)ccc1-c1nc(C)c(COC(=O)Nc2ccc3c(c2)nc2n3CCOC2)s1 [Example 13-26] | 0.00625 µM
57 | Cc1ccc(-c2nc(C)c(NC(=O)OCc3ccc4c(c3)nc3n4CCC3)s2)c(C)c1 [Example 9-108] | 0.025 µM
58 | Cc1nc(-c2ccc3c(c2)CCO3)sc1NC(=O)OCc1ccc2c(c1)ncn2C [Example 9-50] | 10 µM
59 | CCn1cnc2cc(NC(=O)OCc3cc(-c4ccc(Cl)cc4OC)ns3)ccc21 [Example 47-11] | 0.1 µM
60 | COc1ccccc1-c1nscc1NC(=O)OCc1ccc2c(c1)ncn2C [Example 45-6] | 1 µM
61 | COc1ccc(CN(C)NC(=O)c2sc(-c3ccc(Cl)cc3OC)nc2C)cc1C [Example 16-23] | 1 µM
62 | COc1cc(C)ccc1-c1nc(C)c(NC(=O)OCc2ccc3c(c2)nc2n3CCSC2)s1 [Example 40-2, [2-(2-Methoxy-4-methylphenyl)-4-methylthiazol-5-yl]carbamic acid 3,4-dihydro-1H-2-thia-4a,9-diazafluoren-7-ylmethyl ester] | 0.025 µM
63 | COc1ccc(/C=N/NC(=O)c2sc(-c3ncccc3C)nc2C)cc1O [Example 23-26] | 1 µM
64 | CCc1nc(-c2ccc(F)cc2C)sc1NC(=O)OCc1ccc2c(cnn2CC)c1 [Example 9-361] | 0.1 µM
65 | CCN(Cc1ccc(OC)cc1)NC(=O)c1sc(-c2cccc(C)c2C)nc1C [Example 16-14] | 10 µM
66 | CCn1nc(-c2ccc(F)cc2OC)cc1COC(=O)Nc1ccc2c(cnn2C)c1 [Example 13-126] | 10 µM
67 | CCc1nc(-c2ccc(Cl)cc2C)sc1NC(=O)OCc1ccc2c(c1)nc1n2CCOC1 [Example 9-377] | 0.025 µM
68 | COc1cc(Cl)ccc1-c1nc(C)c(NC(=O)OCc2ccc3c(c2)nc2n3CC(O)C2)s1 (centres unmarked) [Example 9-340] | 0.025 µM
